# Results reported in patent publication US20220117938A1, “COMBINATON THERAPY WITH A DON PRODRUG AND AN IMMUNE CHECKPOINT INHIBITOR” (DRACEN PHARMACEUTICALS, INC., priority 2019, published 2022).
# System: CT26.WT tumors
# Assay: Anti-tumor efficacy of Compound 1 and Compound 1 in combination with anti-PD-1 in the CT26.WT syngeneic model (Example 10)
# Type: in vivo, mice
# Procedure: Female BALB/c mice were inoculated subcutaneously in the right flank with CT26.WT cells for tumor development. Six days after tumor inoculation, mice with tumor sizes ranging from 30-81 mm^3 (average tumor size 55 mm^3) were selected and assigned into 10 groups using stratified randomization with 8 mice per group based upon their tumor volumes. The treatments were started from the day of randomization (defined as D0), Group 1 was treated with Vehicle control, 10 mpk, SC, qd 5 days on (Mon-Fri)×4 cycles; Group 2 was treated with Anti-PD-1, 10 mpk, IP, q4d×6; Group 3 was treated with Compound 1, 1.4 mpk, SC, qd 5 days on (Mon-Fri)×4 cycles; Group 4 was treated with Compound 1+anti-PD-1, 1.4 mpk+10 mpk, SC, qd 5 days on (Mon-Fri)×4 cycles+IP, q4d×6; Group 5 was treated with Compound 1, 10.5 mpk, IV, biw (Mon, Thu)×4 cycles; Group 6 was treated with Compound 1+anti-PD-1, 10.5 mpk+10 mpk, IV, biw (Mon, Thu)×4 cycles+IP, q4d×6; Group 7 was treated with Compound 1, 7 mpk IV, tiw (Mon, Wed, Fri)×4 cycles; Group 8 was treated with Compound 1+anti-PD-1, 7 mpk+10 mpk, IV, tiw (Mon, Wed, Fri)×4 cycles+IP, q4d×6; Group 9 was treated with Compound 1, 7 mpk IV, tiw (Mon, Tue, Wed)×4 cycles; and Group 10 was treated with Compound 1+anti-PD-1, 7 mpk+10 mpk, IV, tiw (Mon, Tue, Wed)×4 cycles+IP, q4d×6. The tumor sizes were measured three times per week during the treatment. Survival was monitored with tumor volume exceeding 2000 mm^3 as endpoint. The entire study was terminated on D56 after start of the treatment. All treatments were well-tolerated without any adverse effects or significant body weight loss.
# [1] = Group 3, 1.4 mpk SC qd Mon-Fri x4 cycles
# [2] = Group 3, 1.4 mpk SC qd Mon-Fri x4 cycles, day 14
# [3] = Group 5, 10.5 mpk IV biw x4 cycles
# [4] = Group 5, 10.5 mpk IV biw x4 cycles, day 14
# [5] = Group 7, 7 mpk IV tiw (Mon,Wed,Fri) x4 cycles
# [6] = Group 7, 7 mpk IV tiw (Mon,Wed,Fri) x4 cycles, day 14
# [7] = Group 9, 7 mpk IV tiw (Mon,Tue,Wed) x4 cycles
# [8] = Group 9, 7 mpk IV tiw (Mon,Tue,Wed) x4 cycles, day 14
structure (smiles),measurement,setting,value
"CC(=O)N[C@@H](Cc1c[nH]c2ccccc12)C(=O)N[C@@H](CCC(=O)C=[N+]=[N-])C(=O)OC(C)C [Compound 1, Isopropyl (S)-2-((S)-2-acetamido-3-(1H-indol-3-yl)propanamido)-6-diazo-5-oxohexanoate]",ILS,[1],81.0%
same,MST,[1],38 days
same,RTV at day 14,[1],3.07 ± 0.38
same,Tumor Size at day 14,[1],172 ± 29 mm^3
same,Tumor volume,"Group 3, 1.4 mpk SC qd Mon-Fri x4 cycles, day 0",56 ± 5 mm^3
same,Tumor volume,"Group 3, 1.4 mpk SC qd Mon-Fri x4 cycles, day 2",59 ± 5 mm^3
same,Tumor volume,"Group 3, 1.4 mpk SC qd Mon-Fri x4 cycles, day 11",103 ± 13 mm^3
same,T/C,[2],17.06%
same,TGI,[2],88.16%
same,Tumor volume,[2],172 ± 29 mm^3
same,Tumor volume,"Group 3, 1.4 mpk SC qd Mon-Fri x4 cycles, day 16",163 ± 20 mm^3
same,Tumor volume,"Group 3, 1.4 mpk SC qd Mon-Fri x4 cycles, day 18",191 ± 26 mm^3
same,Tumor volume,"Group 3, 1.4 mpk SC qd Mon-Fri x4 cycles, day 21",258 ± 25 mm^3
same,Tumor volume,"Group 3, 1.4 mpk SC qd Mon-Fri x4 cycles, day 23",276 ± 36 mm^3
same,Tumor volume,"Group 3, 1.4 mpk SC qd Mon-Fri x4 cycles, day 25",278 ± 42 mm^3
same,Tumor volume,"Group 3, 1.4 mpk SC qd Mon-Fri x4 cycles, day 28",466 ± 62 mm^3
same,Tumor volume,"Group 3, 1.4 mpk SC qd Mon-Fri x4 cycles, day 30",682 ± 103 mm^3
same,Tumor volume,"Group 3, 1.4 mpk SC qd Mon-Fri x4 cycles, day 32",1012 ± 189 mm^3
same,Tumor volume,"Group 3, 1.4 mpk SC qd Mon-Fri x4 cycles, day 35",1417 ± 260 mm^3
same,ILS,[3],76.2%
same,MST,[3],37 days
same,RTV at day 14,[3],3.21 ± 1.03
same,Tumor Size at day 14,[3],170 ± 51 mm^3
same,Tumor volume,"Group 5, 10.5 mpk IV biw x4 cycles, day 0",56 ± 5 mm^3
same,Tumor volume,"Group 5, 10.5 mpk IV biw x4 cycles, day 2",52 ± 5 mm^3
same,Tumor volume,"Group 5, 10.5 mpk IV biw x4 cycles, day 11",113 ± 24 mm^3
same,T/C,[4],17.83%
same,TGI,[4],88.39%
same,Tumor volume,[4],170 ± 51 mm^3
same,Tumor volume,"Group 5, 10.5 mpk IV biw x4 cycles, day 16",214 ± 60 mm^3
same,Tumor volume,"Group 5, 10.5 mpk IV biw x4 cycles, day 18",226 ± 59 mm^3
same,Tumor volume,"Group 5, 10.5 mpk IV biw x4 cycles, day 21",381 ± 119 mm^3
same,Tumor volume,"Group 5, 10.5 mpk IV biw x4 cycles, day 23",439 ± 128 mm^3
same,Tumor volume,"Group 5, 10.5 mpk IV biw x4 cycles, day 25",562 ± 197 mm^3
same,Tumor volume,"Group 5, 10.5 mpk IV biw x4 cycles, day 28",849 ± 264 mm^3
same,ILS,[5],76.2%
same,MST,[5],37 days
same,RTV at day 14,[5],3.34 ± 0.97
same,Tumor Size at day 14,[5],201 ± 67 mm^3
same,Tumor volume,"Group 7, 7 mpk IV tiw (Mon,Wed,Fri) x4 cycles, day 0",55 ± 5 mm^3
same,Tumor volume,"Group 7, 7 mpk IV tiw (Mon,Wed,Fri) x4 cycles, day 2",61 ± 9 mm^3
same,Tumor volume,"Group 7, 7 mpk IV tiw (Mon,Wed,Fri) x4 cycles, day 11",111 ± 33 mm^3
same,T/C,[6],18.56%
same,TGI,[6],85.12%
same,Tumor volume,[6],201 ± 67 mm^3
same,Tumor volume,"Group 7, 7 mpk IV tiw (Mon,Wed,Fri) x4 cycles, day 16",238 ± 94 mm^3
same,Tumor volume,"Group 7, 7 mpk IV tiw (Mon,Wed,Fri) x4 cycles, day 18",256 ± 101 mm^3
same,Tumor volume,"Group 7, 7 mpk IV tiw (Mon,Wed,Fri) x4 cycles, day 21",471 ± 261 mm^3
same,ILS,[7],92.9%
same,MST,[7],40.5 days
same,RTV at day 14,[7],2.32 ± 0.84
same,Tumor Size at day 14,[7],132 ± 46 mm^3
same,Tumor volume,"Group 9, 7 mpk IV tiw (Mon,Tue,Wed) x4 cycles, day 0",56 ± 4 mm^3
same,Tumor volume,"Group 9, 7 mpk IV tiw (Mon,Tue,Wed) x4 cycles, day 11",79 ± 19 mm^3
same,T/C,[8],12.89%
same,TGI,[8],92.20%
same,Tumor volume,[8],132 ± 46 mm^3
same,Tumor volume,"Group 9, 7 mpk IV tiw (Mon,Tue,Wed) x4 cycles, day 16",131 ± 52 mm^3
same,Tumor volume,"Group 9, 7 mpk IV tiw (Mon,Tue,Wed) x4 cycles, day 18",160 ± 65 mm^3
same,Tumor volume,"Group 9, 7 mpk IV tiw (Mon,Tue,Wed) x4 cycles, day 21",248 ± 104 mm^3
same,Tumor volume,"Group 9, 7 mpk IV tiw (Mon,Tue,Wed) x4 cycles, day 23",252 ± 103 mm^3
same,Tumor volume,"Group 9, 7 mpk IV tiw (Mon,Tue,Wed) x4 cycles, day 25",255 ± 106 mm^3
same,Tumor volume,"Group 9, 7 mpk IV tiw (Mon,Tue,Wed) x4 cycles, day 28",447 ± 186 mm^3
same,Tumor volume,"Group 9, 7 mpk IV tiw (Mon,Tue,Wed) x4 cycles, day 30",695 ± 300 mm^3
